This passage reports IC50 results from patent US12187758B2 (ROME Therapeutics, Inc., priority 2022, dated 2025).

Format in all cases: cell-based
The test system of one experiment is THP1-Dual KO-TREX1 cells. The experiment in a line: THP1 TREX1 KO inhibition assay (type 1 interferon response). The conditions noted are these: Homo sapiens, 144 h, type 1 interferon (QUANTI-LUC), 1 μM 5-aza-2′-deoxycytidine, six days. As for the experimental part: Exemplary compounds were tested for their ability to alter the type 1 interferon response in THP1 Dual TREX1 KG cells treated with 5-aza-2′-deoxycytidine. Assay procedures and results are described below.
THP1 Dual TREX1 KG cells were purchased from Invivogen. The THP1-Dual™ KO-TREX1 cells were cultured in RPMI 1640, 10% heat-inactivated fetal bovine serum, 25 mM HEPES, 10 μg/mL blasticidin, and 100 μg/mL zeocin. THP1-Dual™ KO-TREX1 cells were treated with a dose titration of a test compound alone or in the presence of 1 μM 5-aza-2′-deoxycytidine (Sigma-Aldrich, cat #189825). Type 1 Interferon and cell viability were assessed after six days of treatment.
Stock solution of the test compound was prepared in DMSO followed by a three-fold dilution in DMSO. Additional 50× dilution was prepared in cell culture media for each dilution. 10 μL of diluted test compound was then added to a 96-well plate.
THP1-Dual™ KO-TREX1 cells were treated with either 1×PBS or 1 μM 5-aza-2′-deoxycytidine. […] of the THP1-Dual™ KO-TREX1 cells from either treatment were added to each well of the 96-well plate containing the test compound titration at 50,000 cells/well. Cells were incubated at 37° C., 5% CO2 in a humidified incubator for six days. Cells treated with 1 μM 5-aza-2′-deoxycytidine were added at the same density as above and incubated at 37° C., 5% CO2 in a humidified incubator for six days. On day six, 25 μL of cell supernatant was transferred to a 96-well white-walled plate, followed by addition to each well of 50 μL of QUANTI-LUC solution containing stabilizer. Luminescence was detected on a plate reader according to the manufacturer's instructions.
The remaining cells were assessed for cell viability by adding 25 μL of CellTiter-Glo (Promega, G9683) solution to each well, and being placed on a shaker for 10 minutes at room temperature. Luminescence was detected on a plate reader, according to the manufacturer's instructions.
In the tables “A” represents values≤0.050 μM; “B” represents values from >0.050 μM to ≤0.100 μM; “C” represents values from >0.100 μM to ≤0.250 μM; “D” represents values from >0.250 μM to ≤1 μM; “E” represents values>1 μM; and “NT”=not tested: […]

A short description of experiment [1]: Mitochondria toxicity assay with PC3 cells, in-cell ELISA COX-1. Particulars: 5 days treatment. As for the experimental part: (§1) Exemplary compounds were tested for inhibition of expression of mitochondria DNA encoded proteins COX-1 […]. SDH-A (succinate dehydrogenase-A) is a control mitochondria protein encoded by nuclear DNA. Reduction in COX-1 expression indicates off target inhibition of mitochondria DNA synthesis which leads to mitochondrial toxicity. Assay procedures and results are described below.
(§2) PC3 cells were purchased from ATCC and cultured in F-12 Kaighn's modified medium (Hyclone), 10% heat-inactivated fetal bovine serum (Invitrogen), 1% Penicillin-Streptomycin (Invitrogen). PC3 cells were treated with a dose titration of a test compound on 96 well plates for 5 days at 37° C., 5% CO2 in a humidified incubator. The treatment plates are duplicated, one for in-cell ELISA for mitochondria proteins and one for cytotoxicity.
(§3) In-cell ELISA was performed to measure mitochondrial proteins using MitoBiogenesis In-Cell ELISA kit (Abcam) per manufacturer's instruction. The medium was aspirated from the compound treated cells, 100 μl per well of 4% paraformaldehyde (Solarbio) was added and cells were incubated at room temperature for 20 minutes. The cells were washed three times with PBS. 100 μl of 0.5% acetic acid was added per cell, and the cells were incubate at room temperature for 5 minutes. Cells were washed once with PBS. 100 μl per well of Permeabilization Buffer was added, and the cells incubate at room temperature for 30 minutes. The permeabilization buffer was removed and 200 μl per well 2× Blocking Buffer was added and the cells were incubated at room temperature for 2 hours. After removing the Blocking Buffer 100 μl per well of primary antibody to SDH-A or COX-1 was added, and the cells were incubated at 4° C. overnight. The primary antibody solution was removed and cells were washed 3 times with the Wash Buffer. 100 μl per well of AP- and HRP-labelled secondary antibodies was added, and the cells were incubated at room temperature for 1 hour. The cells were then washed 4 times with the Wash Buffer. For SDH-A detection, 100 μl per well AP Development Solution was added, and the cells were incubated at room temperature for 10 minutes. Cells were then read on CLARTO star^plus microplate reader (BMG Labtech) for kinetic readings at 405 nm for 5 minutes. […] The cells were then read on CLARTO star^plus microplate reader (BMG Labtech) for kinetic readings at 600 nm for 15 minutes.
(§4) In the table “A” represents values<1.0 μM; “B” represents values from >1.0 μM to ≤10.0 μM; “C” represents values from >10.0 μM to ≤50.0 μM; “D” represents values from >50.0 μM to ≤100.0 μM; and “E” represents values>100.0 μM.
In general terms: ELISA stands for enzyme-linked immunosorbent assay.

Experiment [2] concerns SDH-A (succinate dehydrogenase-A). The experiment in a line: Mitochondria toxicity assay with PC3 cells, in-cell ELISA SDH-A. Particulars: 5 days treatment. As for the experimental part:
as §1, §2, §3, §4

A further experiment concerns PC3 cells. The experiment in a line: Mitochondria toxicity assay with PC3 cells, cytotoxicity (Cell Titer Glo). Particulars: Homo sapiens, PC-3, 120 h, 5 days treatment. As for the experimental part: as §2
For the cytotoxicity assay, the medium from the cell viability plate was removed, 50 μL per well of Cell Titer Glo (Promega, G9683) was added. Then the cells incubated for 30 minutes at room temperature. Luminescence was read by Envision (PerkinElmer 2105).
as §4
In general terms: ATP-based viability assays read luminescence as a measure of living cells.

Regarding `CC#C[C@]1(CO)O[C@@H](n2cnc3c(N)nc(F)nc32)C[C@@H]1O` [Compound 1, (2R,3S,5R)-5-(6-amino-2-fluoro-9H-purin-9-yl)-2-(hydroxymethyl)-2-(prop-1-yn-1-yl)tetrahydrofuran-3-ol], the IC50 with THP1-Dual KO-TREX1 cells was above 1 µM.

With `Cc1cn([C@H]2C[C@H](O)[C@](CO)(CCl)O2)c(=O)[nH]c1=O` [Compound 4, 1-((2R,4S,5R)-5-(chloromethyl)-4-hydroxy-5-(hydroxymethyl)tetrahydrofuran-2-yl)-5-methylpyrimidine-2,4(1H,3H)-dione], the IC50 in experiment [1] was above 100 µM; in the experiment with THP1-Dual KO-TREX1 cells, above 1 µM; in experiment [2], above 100 µM; with PC3 cells, above 100 µM.

With `C#C[C@]1(CO)O[C@@H](n2cnc3c(N)nc(Cl)nc32)[C@@H](F)[C@@H]1O` [Compound 5, (2R,3R,4S,5R)-5-(6-amino-2-chloro-9H-purin-9-yl)-2-ethynyl-4-fluoro-2-(hydroxymethyl)tetrahydrofuran-3-ol], the IC50 in experiment [1] is 10 to 50 µM; in the experiment with THP1-Dual KO-TREX1 cells, above 1 µM; in experiment [2], above 100 µM; with PC3 cells, above 100 µM.

In turn, `O=c1nc(NO)ccn1[C@H]1C[C@H](O)[C@](CO)(CCl)O1` [Compound 6, 1-((2R,4S,5R)-5-(chloromethyl)-4-hydroxy-5-(hydroxymethyl)tetrahydrofuran-2-yl)-4-(hydroxyamino)pyrimidin-2(1H)-one] came in with an IC50 in the experiment with THP1-Dual KO-TREX1 cells above 1 µM.

As for `Cc1cn([C@H]2C[C@H](F)[C@](CO)(CCl)O2)c(=O)[nH]c1=O` [Compound 7, 1-((2R,4S,5R)-5-(chloromethyl)-4-fluoro-5-(hydroxymethyl)tetrahydrofuran-2-yl)-5-methylpyrimidine-2,4(1H,3H)-dione], the IC50 is above 100 µM in experiment [1], above 1 µM in the experiment with THP1-Dual KO-TREX1 cells, above 100 µM in experiment [2] and above 100 µM with PC3 cells.

Turning to `Nc1nc(F)nc2c1ncn2[C@H]1C[C@H](O)[C@](CO)(CCl)O1` [Compound 8, (2R,3S,5R)-5-(6-amino-2-fluoro-9H-purin-9-yl)-2-(chloromethyl)-2-(hydroxymethyl)tetrahydrofuran-3-ol], the IC50 in experiment [1] was 1 to 10 µM; with THP1-Dual KO-TREX1 cells, above 1 µM; in experiment [2] it was 1 to 10 µM; in the experiment on PC3 cells it was 1 to 10 µM.

Take `Cc1cn([C@@H]2O[C@@](CO)(CCl)[C@@H](O)[C@H]2F)c(=O)[nH]c1=O` [Compound 9, 1-((2R,3R,4R,5R)-5-(chloromethyl)-3-fluoro-4-hydroxy-5-(hydroxymethyl)tetrahydrofuran-2-yl)-5-methylpyrimidine-2,4(1H,3H)-dione]: the IC50 in experiment [1] was above 100 µM; in the experiment on THP1-Dual KO-TREX1 cells, above 1 µM; in experiment [2], above 100 µM; in the experiment with PC3 cells, above 100 µM.

`Cc1cn([C@H]2C[C@H](O)[C@](CO)(CCl)O2)c(=O)nc1N` [Compound 11, 4-amino-1-((2R,4S,5R)-5-(chloromethyl)-4-hydroxy-5-(hydroxymethyl)tetrahydrofuran-2-yl)-5-methylpyrimidin-2(1H)-one]: the 50% inhibitory concentration (IC50) in experiment [1] is above 100 µM; in the experiment on THP1-Dual KO-TREX1 cells, above 1 µM; in experiment [2], above 100 µM; with PC3 cells, above 100 µM.

With `C#C[C@@H]1[C@H](n2ccc(N)nc2=O)O[C@@](CO)(CCl)[C@H]1O` [Compound 17, 4-amino-1-((2R,3S,4S,5R)-5-(chloromethyl)-3-ethynyl-4-hydroxy-5-(hydroxymethyl)tetrahydrofuran-2-yl)pyrimidin-2(1H)-one], in the experiment with THP1-Dual KO-TREX1 cells, the IC50 is above 1 µM.

In the case of `Nc1cnn([C@H]2C[C@H](O)[C@](CO)(CCl)O2)c(=O)n1` [Compound 18, 5-amino-2-((2R,4S,5R)-5-(chloromethyl)-4-hydroxy-5-(hydroxymethyl)tetrahydrofuran-2-yl)-1,2,4-triazin-3(2H)-one], the half-inhibitory concentration (IC50) in the experiment on THP1-Dual KO-TREX1 cells was above 1 µM.

`C#C[C@@H]1[C@H](n2ccc(N)nc2=O)O[C@](C)(CO)[C@H]1O` [Compound 20, 4-amino-1-((2R,3S,4S,5R)-3-ethynyl-4-hydroxy-5-(hydroxymethyl)-5-methyltetrahydrofuran-2-yl)pyrimidin-2(1H)-one]: the half-inhibitory concentration (IC50) in the experiment on THP1-Dual KO-TREX1 cells was above 1 µM.

In the case of `Nc1nc(=O)n([C@H]2C[C@H](O)[C@](CO)(CF)O2)cc1F` [Compound 22, 4-amino-5-fluoro-1-((2R,4S,5R)-5-(fluoromethyl)-4-hydroxy-5-(hydroxymethyl)tetrahydrofuran-2-yl)pyrimidin-2(1H)-one], the IC50 in experiment [1] is above 100 µM; in the experiment with THP1-Dual KO-TREX1 cells, 0.05 to 0.1 µM; in experiment [2], above 100 µM; in the experiment with PC3 cells it was above 100 µM.

On to `O=c1nc(NO)ccn1[C@@H]1O[C@@](CO)(CCl)[C@@H](O)[C@H]1F` [Compound 28, 1-((2R,3R,4R,5R)-5-(chloromethyl)-3-fluoro-4-hydroxy-5-(hydroxymethyl)tetrahydrofuran-2-yl)-4-(hydroxyamino)pyrimidin-2(1H)-one], for which, in the experiment with THP1-Dual KO-TREX1 cells, the IC50 was above 1 µM.

`O=c1ccn([C@@H]2O[C@@](CO)(CCl)[C@@H](O)[C@H]2F)c(=O)[nH]1` [Compound 29, 1-((2R,3R,4R,5R)-5-(chloromethyl)-3-fluoro-4-hydroxy-5-(hydroxymethyl)tetrahydrofuran-2-yl)pyrimidine-2,4(1H,3H)-dione] yielded a concentration for half-maximal inhibition (IC50) in the experiment with THP1-Dual KO-TREX1 cells above 1 µM.

Turning to `C#C[C@]1(CO)O[C@@H](n2ccc(N)nc2=O)[C@H](F)[C@@H]1O` [Compound 32, 4-amino-1-((2R,3R,4R,5R)-5-ethynyl-3-fluoro-4-hydroxy-5-(hydroxymethyl)tetrahydrofuran-2-yl)pyrimidin-2(1H)-one], the 50% inhibitory concentration (IC50) in the experiment with THP1-Dual KO-TREX1 cells was above 1 µM.

In the experiment with THP1-Dual KO-TREX1 cells, `C#C[C@]1(CO)O[C@@H](n2ccc(=O)[nH]c2=O)[C@H](F)[C@@H]1O` [Compound 33, 1-((2R,3R,4R,5R)-5-ethynyl-3-fluoro-4-hydroxy-5-(hydroxymethyl)tetrahydro-furan-2-yl)pyrimidine-2,4(1H,3H)-dione] gave a half-maximal inhibitory concentration (IC50) above 1 µM.

As to `O=c1ccn([C@H]2C[C@H](O)[C@](CO)(CCl)O2)c(=O)[nH]1` [Compound 34, 1-((2R,4S,5R)-5-(chloromethyl)-4-hydroxy-5-(hydroxymethyl)tetrahydro-furan-2-yl)pyrimidine-2,4(1H,3H)-dione], the IC50 with THP1-Dual KO-TREX1 cells is above 1 µM.

In the experiment with THP1-Dual KO-TREX1 cells, `C#C[C@]1(CO)O[C@@H](n2ccc(N)nc2=O)C[C@@H]1O` [Compound 41, 4-amino-1-((2R,4S,5R)-5-ethynyl-4-hydroxy-5-(hydroxymethyl)tetrahydro-furan-2-yl)pyrimidin-2(1H)-one] came in with a half-inhibitory concentration (IC50) above 1 µM.

A word on the IC50: it is the midpoint of a concentration-inhibition curve.
